Experimental data from patent US20210093625A1, “COMBINATION THERAPY” (Celleron Therapeutics Limited, priority 2019, published 2021).

Experiments:
[1] = human patients, cited from earlier work
HDAC2 = HDAC2 (Homo sapiens, UniProt Q92769); assay: HDAC2 inhibition; type: biochemical
physchem = conditions: 25 °C, aqueous buffer
SW620 cells [2] = assay: qPCR of single genes in SW620 cells; type: cell-based, human; conditions: control gene, FIG. 3
Method: Total RNA purified from DMSO- or CXD101treated cells was transcribed into cDNA according to the manufacturer's instructions (iScript cDNA Synthesis Kit, Bio-Rad, USA). qPCR was conducted according to the manufacturer's protocol (SsoAdvanced Universal SYBR Green Supermix, Bio-Rad Laboratories, USA) on CFX Connect Real-Time System thermocycler (Bio-Rad Laboratories, USA).

colon26 cells = assay: RNAseq of colon26 cells in vitro; type: cell-based, mouse; conditions: for differentially expressed genes that are immune-related: out of 1142 DEGs
Text: The RNAseq data was aligned to the reference M.musculus genome (mm10) with STAR aligner and analysed for differential expression. […] Out of 1142 differentially expressed genes identified following CXD101 treatment, 36% (416) were immune-related when analysed using the immunogenicity database (ref), and 34% (388) and 15% (176) when analysed with Import and Immunome databases (ref). We further evaluated transcripts identified in the colon26 RNAseq at the single gene level, focussing on murine genes which are homologues of the immune-related genes identified in human SW620 cells, which included genes in the murine MHC H2 complex. A number of H2 genes including class I and class II genes were induced including H2-D1, DMA, DMB1 and EB1 (FIG. 6).
(§1) SW620 cells were seeded into 6-well plates and left to adhere overnight. Cells were treated with 1 μM, 10 μM of CXD101 for 48 h. CT26 cells were seeded onto 100 mm plates and treated with 2.7 μM and 10 μM CXD101 for 72 h. After treatment cells were harvested and total RNA extracted by means of Promega ReliaPrepμ RNA Cell Miniprep System (Promega, USA). RNA was dissolved in RNAse free water and stored in −80° C. for future analysis. RNA concentration was measured by NanoDrop 2000 (Thermo Fisher Scientific, USA). Samples were qualified for library preparation if […]. Library preparation with poly (A) enrichment was performed by BGI.
(§2) FASTQ files for CXD101 and DMSO treated samples in three biological replicates were trimmed to remove adapters and low-quality bases with TrimGalore v.0.4.3(http://www.bioinformatics.babraham.ac.uk/projects/trim_galore/). The trimmed reads were aligned to the human reference genome (build hg19) with STAR aligner v.2.7 with two mismatches allowed. Differential gene expression analysis was done with the Bioconductor framework (v.3.8) and DESeq2 R package v.1.22, using read count data provided by the aligner. Genes were considered differentially expressed if the adjusted P, calculated using the Benjamini-Hochberg method in order to minimise the false discovery rate, was less than 0.01 (1%) and the change in expression level was greater than ˜2-fold as compared to DMSO control (e.g. |log_2(expression fold change) |>1).

HDAC1 = HDAC1 (Homo sapiens, UniProt Q13547); assay: HDAC1 inhibition; type: biochemical
HDAC3 = HDAC3 (Homo sapiens, UniProt O15379); assay: HDAC3 inhibition; type: biochemical
colon26 tumours = assay: RNAseq of colon26 tumours; type: in vivo, Balb/c mice; conditions: log2FC >1 and FDR <1%
Method: To assess gene expression in tumours that were growing in vivo, we evaluated the effect of CXD101 in the syngeneic colon26 colon carcinoma model in tumours grown subcutaneously in Balb/c mice, with CXD101 given orally for two 5-day consecutive periods and performed RNAseq on RNA purified from the tumours. Formalin-fixed paraffin-embedded samples were also prepared to assess by immunohistochemistry (IHC) the tumour micro-environment.
The effect was dose-dependent, as more tumour-inhibition occurred with a higher dose of CXD101 (50 mg/kg compared to 15 mg/kg). […] We performed RNA seq on polyA-enriched RNA prepared from the tumours. In a similar way to the analysis of colon26 in vitro, the RNAseq data was aligned to the reference M.musculus genome (mm10) with STAR aligner and analysed for differential expression.

SW620 cells [3] = assay: RNA-seq of SW620 cells; type: cell-based, human
Method: We performed RNA-seq on polyA-enriched RNA to assess the effect of CXD101 on the global transcript profile in SW620 cells compared to the vehicle-alone (DMSO) treatment (18). The FASTQ data were aligned to the reference human genome (hg19) with STAR aligner and analysed for differential expression using Bioconductor and DESeq2 R suite (19). The sequencing data were of high quality with on average 92% of the reads able to be mapped to the genome (FIG. 1b).
as §1, §2

[4] = colon26 cells in vitro, log2 FC >1 and FDR <1%

Chain of HDAC1 (Q13547 whole entry, species assumed): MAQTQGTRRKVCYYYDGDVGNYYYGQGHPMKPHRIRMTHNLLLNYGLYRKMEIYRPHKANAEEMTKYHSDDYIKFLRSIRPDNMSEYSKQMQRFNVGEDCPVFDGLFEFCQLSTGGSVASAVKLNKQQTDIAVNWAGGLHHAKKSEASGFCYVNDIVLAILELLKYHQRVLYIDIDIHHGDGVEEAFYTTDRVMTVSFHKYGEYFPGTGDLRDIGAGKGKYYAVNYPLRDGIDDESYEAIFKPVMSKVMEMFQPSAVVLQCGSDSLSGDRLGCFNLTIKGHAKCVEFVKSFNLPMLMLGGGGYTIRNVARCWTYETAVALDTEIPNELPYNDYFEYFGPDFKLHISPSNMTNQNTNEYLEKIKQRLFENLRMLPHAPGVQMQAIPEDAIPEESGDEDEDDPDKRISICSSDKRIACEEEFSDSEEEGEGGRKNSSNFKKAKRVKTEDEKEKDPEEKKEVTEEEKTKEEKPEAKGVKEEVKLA
Chain of HDAC3 (O15379 whole entry, species assumed): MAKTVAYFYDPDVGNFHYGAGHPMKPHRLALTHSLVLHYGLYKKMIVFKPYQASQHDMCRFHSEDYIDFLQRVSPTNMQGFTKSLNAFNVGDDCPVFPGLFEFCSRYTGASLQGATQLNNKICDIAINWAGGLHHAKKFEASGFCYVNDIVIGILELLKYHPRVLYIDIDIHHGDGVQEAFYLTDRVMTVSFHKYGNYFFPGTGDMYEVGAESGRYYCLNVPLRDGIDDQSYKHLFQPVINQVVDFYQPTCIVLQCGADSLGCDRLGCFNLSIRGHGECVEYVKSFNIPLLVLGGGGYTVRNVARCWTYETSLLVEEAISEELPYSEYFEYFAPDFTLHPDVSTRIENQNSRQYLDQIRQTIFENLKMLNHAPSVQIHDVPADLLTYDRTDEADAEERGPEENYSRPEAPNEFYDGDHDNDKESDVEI
Chain of HDAC3 (Q9Y618 395-489 partner limits assumed, species assumed): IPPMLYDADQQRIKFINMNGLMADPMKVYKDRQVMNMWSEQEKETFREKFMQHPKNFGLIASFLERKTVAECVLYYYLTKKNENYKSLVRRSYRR
Chain of HDAC2 (Q92769 whole entry, species assumed): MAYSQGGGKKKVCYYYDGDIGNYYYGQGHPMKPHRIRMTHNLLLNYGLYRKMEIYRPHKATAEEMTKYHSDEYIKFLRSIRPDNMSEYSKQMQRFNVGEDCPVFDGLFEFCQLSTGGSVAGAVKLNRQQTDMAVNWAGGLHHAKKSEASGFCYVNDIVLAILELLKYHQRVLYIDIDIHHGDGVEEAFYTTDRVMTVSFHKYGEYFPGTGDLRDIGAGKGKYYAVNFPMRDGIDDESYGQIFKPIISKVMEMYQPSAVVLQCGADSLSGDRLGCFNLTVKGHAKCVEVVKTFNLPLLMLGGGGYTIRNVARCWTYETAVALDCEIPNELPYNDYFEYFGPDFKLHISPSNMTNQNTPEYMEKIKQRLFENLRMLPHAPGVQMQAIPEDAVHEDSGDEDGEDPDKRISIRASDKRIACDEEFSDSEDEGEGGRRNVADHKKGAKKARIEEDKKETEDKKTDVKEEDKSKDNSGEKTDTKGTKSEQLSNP

## Cc1nn(C)cc1CN1CCC(c2ccc(C(=O)Nc3ccccc3N)cc2)CC1 [CXD101, N-(2-aminophenyl)-4-(1-[(1,3-dimethyl-1H-pyrazol-4-yl)methyl]piperidin-4yl)benzamide]
[1]; for 5 days in a 3-weekly cycle
  MTD: 20 mg B.D.
[1]
  safety profile: favourable safety profile
HDAC2
  IC50: 570 nM
physchem
  solubility: ≥ 500 µg/mL
SW620 cells [2]
  expression of REPIN1: no effect
colon26 cells; [4]
  genes down-regulated: 611
  genes up-regulated: 1891
colon26 cells; colon26 cells, log2FC >1 and FDR <1%
  size of DEG set in vitro: 2502
colon26 cells; Immunome database
  differentially expressed genes that are immune-related: 15%
colon26 cells; Import database
  differentially expressed genes that are immune-related: 34%
colon26 cells; immunogenicity database
  differentially expressed genes that are immune-related: 36%
HDAC1
  IC50: 63 nM
HDAC3
  IC50: 550 nM
colon26 tumours
  size of DEG set in vivo: 1141
SW620 cells [3]; SW620
  proportion of DEGs down-regulated: 30%
  proportion of DEGs up-regulated: 70%
SW620 cells [3]; SW620, log2 FC >1 and FDR <1%, vs DMSO
  number of differentially expressed transcripts (DEGs): about 2500
